Data taken from ChEMBL document CHEMBL1201862, “PubChem BioAssay data set” (2004).
Activity calls are given as the source filed them.

Columns and labels:
[1] = Trypanosoma cruzi growth suppression in host cells – NIH3T3 host cells, beta-gal luminescence, confirmation (AID 2044); type: functional, cell-based;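 note: intracellular parasites grown in NIH/3T3 mouse fibroblasts as host cells; luminescent beta-galactosidase reporter signal from transgenic T. cruzi replicating inside host cells; inhibitors lower the luminescence signal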
[2] = NIH3T3 cell viability loss – ATP luminescence, mouse fibroblasts, counter-screen, dose response (AID 2010); type: functional, cell-based;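 note: cells exposed to compound for about 90 hours before reading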
[3] = Luminescence Cell-Based Dose Retest to Confirm Inhibitors of Cancer Stem Cells. [Related pubchem assays (depositor defined):AID2717, AID2721]; type: functional; settings: Homo sapiens
[4] = biological target: T1, Carboxy-terminal domain RNA polymerase II polypeptide A small phosphatase 1 (Homo sapiens, UniProt Q9GZU7); test: CTDSP1 inhibitors, concentration-response, biochemical, absorbance readout, ultra-high-throughput screen actives (AID 540297); type: functional
T1 sequence (Q9GZU7 whole entry): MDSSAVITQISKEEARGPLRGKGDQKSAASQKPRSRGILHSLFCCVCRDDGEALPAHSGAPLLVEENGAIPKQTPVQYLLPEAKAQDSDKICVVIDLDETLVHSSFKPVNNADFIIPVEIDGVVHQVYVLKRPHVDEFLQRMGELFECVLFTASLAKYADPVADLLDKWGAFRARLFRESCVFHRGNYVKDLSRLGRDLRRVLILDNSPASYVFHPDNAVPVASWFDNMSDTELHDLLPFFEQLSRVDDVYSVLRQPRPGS

[5] = reduction of Shn3 3'UTR-driven luciferase in osteoblasts – cell-based, Clone20 osteoblasts, firefly luciferase, cherry-picked, dose response (AID 624132); type: functional;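 note: firefly luciferase luminescence from reporter carrying the Shn3 3'UTR in osteoblasts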
[6] = loss of viability in HepG2 cells – cell-based, CellTiter-Glo, cherry-picked, cytotoxicity control for Shn3 inhibitor project, dose response (AID 624134); type: functional
[7] = non-specific 3'UTR reporter inhibition in Clone20-Shn3RL – cell-based, Renilla luciferase, cherry-picked, counter-screen for Shn3 inhibitor project, dose response (AID 624133); type: functional
P388/ADR = test: cells; type: functional
SN12K1 = test: cells; type: functional
P388 = test: cells; type: functional

Structure (SMILES)	IC50 [4]	GI50 (P388/ADR; Mus musculus, P388/ADR)	GI50 (SN12K1; Homo sapiens, SN12K1)	GI50 (P388; Mus musculus, P388)	further results
O=C(Nc1nc2ccccc2s1)C1CCN(S(=O)(=O)c2cc([N+](=O)[O-])ccc2Cl)CC1	3.28 µM (active)	–	–	–	EC50 [1]: 0.713 µM (active); EC50 [2]: > 60 µM (not active); AC50 [3]: 25 µM (active); AC50 [5]: 3.07 µM (active); AC50 [6]: 50.7 µM (active); AC50 [7]: 2.18 µM (active)
COc1cccc2cc(-c3cc(=O)oc4cc(C)c(O)cc34)oc12	9.12 µM (active)	–	–	–	–
CCn1cc(C(=O)NCc2ccco2)c(=O)c2cc(F)c(N3CCN(C(=O)c4ccco4)CC3)cc21	17.6 µM (active)	–	–	–	–
COc1ccc(C(=O)NCC(=O)Nc2ccc(-c3ccccc3)cc2)cc1	5.62 µM (active)	–	–	–	–
Cc1ccc(OCC(=O)NNC(=O)Cn2nnc(-c3ccccc3)n2)cc1	12.7 µM (active)	–	–	–	–
Nc1ccn(C2CCC(CO)O2)c(=O)n1 (centres undefined)	–	> 80.4 µM (inactive)	> 100 µM (inactive)	> 100 µM (inactive)	–
CCOC(=O)NC(=O)c1cn(CCN(CCO)C(=O)NCCCCCCNC(=O)N(CCO)CCn2cc(C(=O)NC(=O)OCC)c(=O)[nH]c2=O)c(=O)[nH]c1=O	–	> 100 µM (inactive)	> 100 µM (inactive)	> 100 µM (inactive)	–
CCCCCCCCCOCC(COP(=O)([O-])OCC[N+](C)(C)C)OC (centres undefined)	–	> 100 µM (inactive)	> 100 µM (inactive)	99.1 µM (inactive)	–
CNCCNc1ccc2c3c(nn2CCNCCO)-c2c(O)ccc(O)c2C(=O)c13	–	0.216 µM (active)	0.0673 µM (active)	0.000867 µM (active)	–
CC(C)NC(=O)OCc1c2c(n(C)c1COC(=O)NC(C)C)-c1ccccc1CC2	–	2 µM (inactive)	12 µM (inactive)	1.79 µM (inactive)	–
CC(/C=C/c1ccco1)=N\NC(=O)c1cc(Cl)ccc1O	10.7 µM (active)	–	–	–	–
CC[C@]1(O)C[C@H]2CN(CCc3c([nH]c4ccccc34)[C@@](C(=O)OC)(c3cc4c(cc3OC)N(C)[C@H]3[C@@](O)(C(=O)OC)[C@H](OC(C)=O)[C@]5(CC)C=CCN6CC[C@]43[C@@H]65)C2)C1	–	0.103 µM (active)	0.000348 µM (active)	0.000674 µM (active)	–
Cc1c2cc[n+](C)cc2c(C)c2c1[nH]c1ccccc12	–	–	–	–	GI50 (P388/ADR): 70 µM (inactive); GI50 (SN12K1): 0.385 µM (active); GI50 (P388): 1.12 µM (inactive)
CCCCCCc1ccc(O)cc1O [HEXYLRESORCINOL]	–	45.2 µM (inactive)	37.5 µM (inactive)	48.4 µM (inactive)	EC50 [1]: 0.781 µM (active); EC50 [2]: > 30 µM (not active)
O=C1CNC(=O)N1 [HYDANTOIN]	–	706 µM (inactive)	> 1120 µM (inactive)	630 µM (inactive)	–
O=C1N[C@@H]2C(=C[C@H](O)[C@@H](O)[C@H]2O)c2cc3c(c(O)c21)OCO3 [NARCICLASINE]	–	0.045 µM (active)	0.045 µM (active)	0.045 µM (active)	–
